Measured values taken from patent US20230270720A1, “MAVOGLURANT, A MGLUR5 ANTAGONIST, FOR USE IN THE TREATMENT IN THE REDUCTION OF OPIOID USE” (Novartis AG, priority 2020, published 2023).

Experiments:
Sprague-Dawley rats [1] = assay: Cue-induced reinstatement of remifentanil seeking in the rat; assay type: in vivo
[2] = tested on: rat model of drug dependence; conditions: cited from earlier work
Sprague-Dawley rats [3] = assay: Remifentanil intravenous self-administration model in Sprague-Dawley rats; assay type: in vivo, rat; conditions: for rate of lever press (speed of lever pressing): vehicle 0.077±0.031, P>0.05
morphine tolerant mice = assay: Opiate tolerance test (hot plate) in the mouse; assay type: in vivo; conditions: for increase of foot-licking latency as compared with animals receiving morphine from Day 1 to Day 6: morphine 32 mg/kg i.p. twice daily Day 1-6; for effect on foot-licking latency: morphine tolerant mice
adult CD1 mice = conditions: 20 mg/kg, i.p., cited from earlier work

SMILES: Cc1cccc(C#Cc2ccccc2)n1 [Compound (III), 2-Methyl-6-(phenylethynyl)-pyridine, reference compound]
- number of active lever presses as compared with vehicle condition (Sprague-Dawley rats [1]; rat, in vivo): significantly decreased
- number of inactive lever presses as compared with vehicle (Sprague-Dawley rats [1]; rat, in vivo): did not significantly affect
- reduction of the self-administration (SA) of ketamine ([2]; dose dependently): 75%
- reduction of the self-administration (SA) of heroin ([2]; modestly): 20%
- rate of lever press (Sprague-Dawley rats [3]; rat, in vivo): 0.039±0.011 responses per second
- increase of foot-licking latency as compared with animals receiving morphine from Day 1 to Day 6 (morphine tolerant mice; 10 mg/kg p.o. 60 minutes before the test on Day 7, p<0.05): +32%

SMILES: Cc1nc(C#Cc2cccnc2)cs1 [MTEP, 3-[(2-methyl-1,3-thiazol-4-yl)ethynyl]pyridine]
- operant responding for morphine (adult CD1 mice; morphine 0.1 mg/kg/infusion): attenuated
- cue-induced morphine-seeking after a period of forced abstinence (adult CD1 mice): attenuated

SMILES: COC(=O)N1CC[C@@H]2[C@H]1CCC[C@@]2(O)C#Cc1cccc(C)c1 [Compound (I), (−)-(3aR,4S,7aR)-4-Hydroxy-4-m-tolylethynyl-octahydro-indole-1-carboxylic acid methyl ester]
- effect on cue-induced reinstatement (lever presses) (Sprague-Dawley rats [1]; 3 mg/kg p.o. 30 minutes before the cue reinstatement session): No significant effect
- number of active lever presses as compared with vehicle condition (Sprague-Dawley rats [1]; 10 mg/kg p.o. 30 minutes before the cue reinstatement session, p<0.01): significantly decreased
- number of inactive lever presses as compared with vehicle (Sprague-Dawley rats [1]; 10 mg/kg p.o. 30 minutes before the cue reinstatement session, p<0.05): significantly decreased
- average number of remifentanil infusions (Sprague-Dawley rats [3]; 3 mg/kg p.o. 30 min before one remifentanil 3.2 μg/kg/infusion session): did not significantly affect
- rate of lever press (speed of lever pressing) (Sprague-Dawley rats [3]; 3 mg/kg p.o. 30 min before session): 0.048±0.019 responses/second/session
- average number of remifentanil infusions (Sprague-Dawley rats [3]; 10 mg/kg p.o. 30 min before one remifentanil 3.2 μg/kg/infusion session): did not significantly affect
- rate of lever press (speed of lever pressing) (Sprague-Dawley rats [3]; 10 mg/kg p.o. 30 min before session): 0.035±0.010 responses/second/session
- average number of remifentanil infusions (Sprague-Dawley rats [3]; 30 mg/kg p.o. 30 min before one remifentanil 3.2 μg/kg/infusion session): did not significantly affect
- rate of lever press (speed of lever pressing) (Sprague-Dawley rats [3]; 30 mg/kg p.o. 30 min before session): 0.026±0.007 responses/second/session
- increase of foot-licking latency as compared with animals receiving morphine from Day 1 to Day 6 (morphine tolerant mice; 1 mg/kg p.o. 60 minutes before the test on Day 7, p<0.01): +44%
- effect on foot-licking latency (morphine tolerant mice; 3 mg/kg p.o. 60 minutes before the test on Day 7): no significant effects
- effect on foot-licking latency (morphine tolerant mice; 10 mg/kg p.o. 60 minutes before the test on Day 7): no significant effects
